{"source": "paper PMC5797744", "about": "“Molecular Features Underlying Selectivity in Chicken Bitter Taste Receptors” (Frontiers in Molecular Biosciences, 2018)", "target": "T1, ggTas2r2 (Gallus gallus, UniProt A0A1D5PXM6)", "T1 construct": "gene LOC101747503; transient expression in HEK 293T stably expressing Galpha16gust44; printed residues Gly85, Trp88, Asn92, Tyr180, Leu184, Tyr243, Ser246, Gln250", "T1 sequence (A0A1D5PXM6 1-311)": "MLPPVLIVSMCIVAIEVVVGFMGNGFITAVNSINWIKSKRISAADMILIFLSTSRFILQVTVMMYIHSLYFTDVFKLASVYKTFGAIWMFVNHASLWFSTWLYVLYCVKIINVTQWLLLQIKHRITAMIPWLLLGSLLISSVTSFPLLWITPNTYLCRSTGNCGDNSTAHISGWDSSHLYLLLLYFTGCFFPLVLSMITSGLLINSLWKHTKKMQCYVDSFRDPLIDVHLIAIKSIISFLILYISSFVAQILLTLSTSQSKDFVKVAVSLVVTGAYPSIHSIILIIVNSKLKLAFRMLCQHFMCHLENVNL", "assay": "calcium mobilization, Fluo4-AM, FLIPR, dose-response", "type": "cell-based", "conditions": "agonist; HEK 293T with Galpha16gust44; 2.5 mM probenecid at loading", "data": [{"smiles": "CCOc1ccc2nccc([C@@H](O)[C@@H]3C[C@@H]4CCN3C[C@@H]4CC)c2c1", "note": "[ethylhydrocupreine]", "values": [{"measurement": "calcium mobilization, Fluo4-AM, FLIPR, dose-response", "value": "Epiquinidine and ethylhydrocupreine can still activate ggTas2r2 and ggTas2r7"}]}, {"smiles": "C=C[C@H]1CN2CC[C@H]1C[C@@H]2[C@H](O)c1ccnc2ccc(OC)cc12", "note": "[epiquinidine]", "values": [{"measurement": "calcium mobilization, Fluo4-AM, FLIPR, dose-response", "value": "Epiquinidine and ethylhydrocupreine can still activate ggTas2r2 and ggTas2r7"}]}]}
